≈ marks a conversion by molar mass, not a printed value. Like-named read-outs stand apart in the source and are kept apart here. Numbered stars: 1 amine (or outer) side, 2 acyl side, 3 side chain; on linkers, the order of the positions; unused ones are H or OH. Square brackets hold non-standard residues; d marks the D form. Peptide text beside a SMILES is read from it. X5 = N=C1NCC(C(O)[C@@H](N[*:1])C(=O)[*:2])N1; X4 = N=C1NCC(C(O)[C@H](N[*:1])C(=O)[*:2])N1; Cha = N[C@@H](CC1CCCCC1)C(=O)O; dCha = N[C@H](CC1CCCCC1)C(=O)O
Columns and labels:
Experiment in all cases: in vitro antibacterial evaluation, MIC by broth dilution
Type in all cases: cell-based
Enterococcus sp. = settings: broth dilution, 18 hours at 35° C.
In short: (§1)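 Broth dilution per NCCLS standard M7-A2 in Muller-Hinton II […], with an inoculum of 5×10^5 CFU/mL and antibiotic spanning 64-0.06 μg/mL. The MIC is the lowest concentration that inhibits growth of the organism.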

Staphylococcus sp. = settings: broth dilution, 18 hours at 35° C.
In short: as §1

Streptococcus sp. = settings: broth dilution, 18 hours at 35° C.
In short: as §1

Escherichia coli = settings: 18 hours at 35° C.
In short: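 Broth dilution in Muller-Hinton II medium per NCCLS standard M7-A2, with an inoculum of 5×10^5 CFU/mL and antibiotic tested over 64-0.06 μg/mL. MIC was taken as the lowest concentration inhibiting visible growth.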

With `N=C1NCC(C(O)[C@@H]2NC(=O)[C@@H](CC3CCCCC3)NC(=O)[C@H](CC3CCCCC3)NC(=O)CNC(=O)[C@H](CO)NC(=O)[C@@H](C(O)C3CNC(=N)N3)NC2=O)N1` (stereo partly drawn) [Example 58, Cyclo[3-cyclohexylalanyl-3-cyclohexylalanyl-3-(2-iminoimidazolidin-4-yl)seryl-3-(2-iminoimidazolidin-4-yl)-serylserylglycyl]] (cyclo([Cha][dCha][X4][X5]SG)) the “MIC Enterococcus avium (GC 4558)” value (Enterococcus sp.; Enterococcus avium (GC 4558)) was 32 µg/mL (≈ 40.5 µM), the “MIC Enterococcus faecalis (ATCC 29212)” value (Enterococcus sp.; Enterococcus faecalis (ATCC 29212)) was 64 µg/mL (≈ 80.9 µM) and the “MIC Enterococcus faecalis (GC 4552)” value (Enterococcus sp.; Enterococcus faecalis (GC 4552)) was 64 µg/mL (≈ 80.9 µM). For the same molecule, the “MIC Enterococcus faecalis (GC 4553)” value (Enterococcus sp.; Enterococcus faecalis (GC 4553)) was 32 µg/mL (≈ 40.5 µM), the “MIC Enterococcus faecalis (GC 4554)” value (Enterococcus sp.; Enterococcus faecalis (GC 4554)) was 64 µg/mL (≈ 80.9 µM) and the “MIC Enterococcus faecalis (GC 6189)” value (Enterococcus sp.; Enterococcus faecalis (GC 6189)) was 64 µg/mL (≈ 80.9 µM). The “MIC Enterococcus faecium (GC 2243)” value (Enterococcus sp.; Enterococcus faecium (GC 2243)) was 32 µg/mL (≈ 40.5 µM), the “MIC Enterococcus faecium (GC 4556)” value (Enterococcus sp.; Enterococcus faecium (GC 4556)) was 64 µg/mL (≈ 80.9 µM) and the “MIC Enterococcus faecium (GC 4557)” value (Enterococcus sp.; Enterococcus faecium (GC 4557)) was 8 µg/mL (≈ 10.1 µM). For the same molecule, the MIC (Enterococcus sp.; read-out: MIC Enterococcus avium (GC 4558)) was 32 µg/mL (≈ 40.5 µM), the MIC (Enterococcus sp.; read-out: MIC Enterococcus faecalis (ATCC 29212)) was 64 µg/mL (≈ 80.9 µM) and the MIC (Enterococcus sp.; read-out: MIC Enterococcus faecalis (GC 2242)) was 64 µg/mL (≈ 80.9 µM). The MIC (Enterococcus sp.; read-out: MIC Enterococcus faecalis (GC 2691)) was 64 µg/mL (≈ 80.9 µM), the MIC (Enterococcus sp.; read-out: MIC Enterococcus faecalis (GC 3059)) was 64 µg/mL (≈ 80.9 µM) and the MIC (Enterococcus sp.; read-out: MIC Enterococcus faecalis (GC 4552)) was 64 µg/mL (≈ 80.9 µM). It also gave an MIC (Enterococcus sp.; read-out: MIC Enterococcus faecalis (GC 4553)) of 32 µg/mL (≈ 40.5 µM), an MIC (Enterococcus sp.; read-out: MIC Enterococcus faecalis (GC 4554)) of 64 µg/mL (≈ 80.9 µM) and an MIC (Enterococcus sp.; read-out: MIC Enterococcus faecalis (GC 6189)) of 64 µg/mL (≈ 80.9 µM). It also gave an MIC (Enterococcus sp.; read-out: MIC Enterococcus faecium (GC 2243)) of 32 µg/mL (≈ 40.5 µM), an MIC (Enterococcus sp.; read-out: MIC Enterococcus faecium (GC 4556)) of 64 µg/mL (≈ 80.9 µM) and an MIC (Enterococcus sp.; read-out: MIC Enterococcus faecium (GC 4557)) of 8 µg/mL (≈ 10.1 µM). For the same molecule, the “MIC Enterococcus faecalis (GC 2242)” value (Enterococcus sp.; strain GC 2242) was 64 µg/mL (≈ 80.9 µM), the “MIC Enterococcus faecalis (GC 2691)” value (Enterococcus sp.; strain GC 2691) was 64 µg/mL (≈ 80.9 µM) and the “MIC Enterococcus faecalis (GC 3059)” value (Enterococcus sp.; strain GC 3059) was 64 µg/mL (≈ 80.9 µM). For the same molecule, the MIC (Staphylococcus sp.; Staphylococcus, strain GC 4543, read-out: MIC Staphylococcus aureus-SMITH (GC 4543)) was 4 µg/mL (≈ 5.06 µM), the MIC (Staphylococcus sp.; Staphylococcus, strain GC 4547, read-out: MIC Coagulase Negative Staphylococcus (GC 4547)) was 4 µg/mL (≈ 5.06 µM) and the MIC (Staphylococcus sp.; Staphylococcus, strain GC 4548, read-out: MIC Coagulase Negative Staphylococcus (GC 4548)) was 4 µg/mL (≈ 5.06 µM). The MIC (Staphylococcus sp.; Staphylococcus, strain GC 4549, read-out: MIC Coagulase Negative Staphylococcus (GC 4549)) was 4 µg/mL (≈ 5.06 µM), the MIC (Staphylococcus sp.; Staphylococcus, strain GC 4551, read-out: MIC Coagulase Negative Staphylococcus (GC 4551)) was 8 µg/mL (≈ 10.1 µM) and the MIC (Staphylococcus sp.; strain ATCC 29213, read-out: MIC Staphylococcus aureus (ATCC 29213)) was 16 µg/mL (≈ 20.2 µM). The MIC (Staphylococcus sp.; strain GC 1131, read-out: MIC Staphylococcus aureus (GC 1131)) was 8 µg/mL (≈ 10.1 µM), the MIC (Staphylococcus sp.; strain GC 3051, read-out: MIC Staphylococcus aureus (GC 3051)) was 16 µg/mL (≈ 20.2 µM) and the MIC (Staphylococcus sp.; strain GC 3053, read-out: MIC Staphylococcus aureus (GC 3053)) was 32 µg/mL (≈ 40.5 µM). It also gave an MIC (Staphylococcus sp.; strain GC 4541, read-out: MIC Staphylococcus aureus (GC 4541)) of 16 µg/mL (≈ 20.2 µM), an MIC (Staphylococcus sp.; strain GC 4542, read-out: MIC Staphylococcus aureus (GC 4542)) of 16 µg/mL (≈ 20.2 µM) and an MIC (Staphylococcus sp.; strain GC 4544, read-out: MIC Staphylococcus aureus (GC 4544)) of 16 µg/mL (≈ 20.2 µM). It also gave an MIC (Staphylococcus sp.; strain GC 4545, read-out: MIC Staphylococcus aureus (GC 4545)) of 8 µg/mL (≈ 10.1 µM), an MIC (Staphylococcus sp.; strain GC 4546, read-out: MIC Staphylococcus haemolyticus (GC 4546)) of 4 µg/mL (≈ 5.06 µM) and an MIC (Streptococcus sp.; read-out: MIC Streptococcus agalactiae (GC 4564)) of 16 µg/mL (≈ 20.2 µM). For the same molecule, the MIC (Streptococcus sp.; read-out: MIC Streptococcus pneumoniae (ATCC 6301)) was 8 µg/mL (≈ 10.1 µM), the MIC (Streptococcus sp.; read-out: MIC Streptococcus pneumoniae (GC 1894)) was 8 µg/mL (≈ 10.1 µM) and the MIC (Streptococcus sp.; read-out: MIC Streptococcus pneumoniae (GC 4565)) was 16 µg/mL (≈ 20.2 µM). For the same molecule, the MIC (Streptococcus sp.; read-out: MIC Streptococcus pyogenes (GC 4563)) was 8 µg/mL (≈ 10.1 µM), the “MIC Streptococcus pneumoniae (ATCC 6301)” value (Streptococcus sp.; strain ATCC 6301) was 8 µg/mL (≈ 10.1 µM) and the “MIC Streptococcus pneumoniae (GC 1894)” value (Streptococcus sp.; strain GC 1894) was 8 µg/mL (≈ 10.1 µM). For the same molecule, the “MIC Streptococcus pyogenes (GC 4563)” value (Streptococcus sp.; strain GC 4563) was 8 µg/mL (≈ 10.1 µM), the “MIC Streptococcus agalactiae (GC 4564)” value (Streptococcus sp.; strain GC 4564) was 16 µg/mL (≈ 20.2 µM) and the “MIC Streptococcus pneumoniae (GC 4565)” value (Streptococcus sp.; strain GC 4565) was 16 µg/mL (≈ 20.2 µM). It also gave an MIC (Escherichia coli; Escherichia coli (ATCC 25922), read-out: MIC Escherichia coli (ATCC 25922)) of 16 µg/mL (≈ 20.2 µM), an MIC (Escherichia coli; Escherichia coli, read-out: MIC Escherichia coli (GC 4559)) of 8 µg/mL (≈ 10.1 µM) and an MIC (Escherichia coli; Escherichia coli, read-out: MIC Escherichia coli (GC 4560)) of 16 µg/mL (≈ 20.2 µM).

Source: patent publication US6914045B2, “Glycopeptide antibiotics” (Wyeth Holdings Corporation, priority 2001, dated 2005)
